The text below walks through data of US4549022A, “4-Pyridone-3-carboxylic acid derivatives” (Hoffmann-La Roche Inc., priority 1978, dated 1985).

In brackets after ≈: the same amount, converted by molar mass. Where two headings read alike, the source gives them in different places.

Data set [1] concerns Escherichia coli. The data set is described as follows: Escherichia coli in vitro MIC (Minimum Inhibitory Concentration). Format: cell-based.
In data set [2] the test system is Escherichia coli. The data set is described as follows: Escherichia coli in vivo (mouse) ED50.
The next data set has as its system central nervous system. The data set is described as follows: Turning rat test (minimum active dosage). The format is in vivo.
A short description of a further data set: LD50 (acute toxicity). The format is in vivo.
The mark [3] stands for this setting: vs d-amphetamine and d-methamphetamine, see Table 1.

In general, MIC refers to the lowest concentration that inhibits growth of the organism. By ED50 is commonly meant the midpoint of the dose-response relation. As for `CCn1cc(C(=O)O)c(=O)cc1-c1ccc(N(C)C)cc1` [1-ethyl-6-[4-(dimethylamino)-phenyl]-4-oxo-1,4-dihydronicotinic acid], the minimum inhibitory concentration (MIC) in the data set with Escherichia coli [1] (read-out: MIC) was found to be 0.6 µg/mL (≈ 2.1 µM). Further, in the data set with Escherichia coli [2] (po, read-out: ED50), the 50% effective dose (ED50) came to 8.8 mg/kg.

For `CCn1cc(C(=O)O)c(=O)cc1-c1ccc(NC)c(C)c1` [1-ethyl-6-(3-methyl-4-methylaminophenyl)-4-oxo-1,4-dihydronicotinic acid], the MIC in the data set on Escherichia coli [1] (read-out: MIC) turned out to be 0.6 µg/mL (≈ 2.1 µM). Also, the 50% effective dose (ED50) in the data set with Escherichia coli [2] (po, read-out: ED50) came out at 3.5 mg/kg.

Turning to `CCn1cc(C(=O)O)c(=O)cc1-c1ccc(N2CCCC2)cc1` [1-ethyl-6-(4-pyrrolidinophenyl)-4-oxo-1,4-dihydronicotinic acid], in the data set with Escherichia coli [1] (read-out: MIC), the minimum inhibitory concentration (MIC) is 1.2 µg/mL (≈ 3.84 µM). Moreover, the 50% effective dose (ED50) in the data set on Escherichia coli [2] (po, read-out: ED50) worked out at 19 mg/kg.

`CCn1cc(C(=O)O)c(=O)cc1-c1ccc(-n2cccc2)cc1` [1-ethyl-6-(4-pyrrolophenyl)-4-oxo-1,4-dihydronicotinic acid] gave an MIC in the data set on Escherichia coli [1] of 1.2 µg/mL (≈ 3.89 µM). Also, the ED50 in the data set with Escherichia coli [2] (p.o.) is given as 34 mg/kg.

Turning to `O=C1CN(/N=C/c2ccc([N+](=O)[O-])o2)C(=O)N1` [Nitrofurantoin, reference compound], the MIC in the data set on Escherichia coli [1] (read-out: MIC) is 5 µg/mL (≈ 21 µM). Further, the median effective dose (ED50) in the data set with Escherichia coli [2] (po, read-out: ED50) is greater than 100 mg/kg.

As for `CCn1cc(C(=O)O)c(=O)cc1-c1ccc(SC)cc1` [1-ethyl-6-(4-methylthiophenyl)-4-oxo-1,4-dihydronicotinic acid], in the data set on Escherichia coli [1] (read-out: MIC), the MIC was 2.5 µg/mL (≈ 8.64 µM). In the data set on Escherichia coli [2] (po, read-out: ED50), the ED50 was 82 mg/kg.

As a reminder, the LD50 is the dose at which mortality reaches 50%. A high value points to lower toxicity. As to `CCn1cc(C(=O)O)c(=O)cc1-c1ccccc1` [1-ethyl-4-oxo-6-phenyl-1,4-dihydronicotinic acid], in the data set with central nervous system (Arch. int. Pharmacodyn. Ther. 217, 118-130 (1975)), the “Turning rat test minimum active dosage” value worked out at 1. In addition, the “activity compared with d-amphetamine and d-methamphetamine” value with central nervous system (setting [3]) is “about the same strong activity”. In addition, the “activity compared with nomifensin” value in the data set on central nervous system (vs nomifensin, see Table 1) was “substantially superior activity to nomifensin”. Also, the LD50 in “LD50 (acute toxicity)” (in vivo, po) lay within 300 to 600 mg/kg. For the same molecule, the “LD50 compared with d-amphetamine and d-methamphetamine” value in “LD50 (acute toxicity)” (setting [3]) is on record as “substantially lower LD50”. For the same molecule, the “LD50 compared with nomifensin” value in the data set “LD50 (acute toxicity)” (vs nomifensin, see Table 1) was “about the same LD50”.

For the molecule `CCn1cc(C(=O)O)c(=O)cc1-c1ccc(OC)cc1` [1-ethyl-6-(4-methoxyphenyl)-4-oxo-1,4-dihydronicotinic acid], the minimal inhibitory concentration (MIC) in the data set with Escherichia coli [1] (read-out: MIC) turned out to be 2.5 µg/mL (≈ 9.15 µM). For the same molecule, the ED50 in the data set with Escherichia coli [2] (po, read-out: ED50) was greater than 100 mg/kg.

`CCn1cc(C(=O)O)c(=O)cc1-c1ccc2c(c1)OCO2` [1-ethyl-6-(3,4-methylenedioxyphenyl)-4-oxo-1,4-dihydronicotinic acid]: the MIC in the data set with Escherichia coli [1] (read-out: MIC) came to 2.5 µg/mL (≈ 8.7 µM). Further, in the data set with Escherichia coli [2] (po, read-out: ED50), the ED50 was greater than 100 mg/kg.
